Article PMC10983001, “Development of Cytotoxic GW7604-Zeise’s Salt Conjugates as Multitarget Compounds with Selectivity for Estrogen Receptor- Positive Tumor Cells” (Journal of Medicinal Chemistry, 2024)

Experiments:
[1] = biological target: T1, human recombinant COX-1 (Homo sapiens, UniProt P23219); assay type: biochemical; conditions: incubation 10 min
T1 construct: purchased Cayman Chemicals
Procedure: (§1) COX-1/2 inhibition was evaluated in an established assay on isolated isoenzymes. After incubation with the drugs (concentration: 20 μM) for 10 min, the remaining COX activity was measured by an enzyme-linked immunosorbent assay (ELISA).
(§2) The incubation time of the compounds with the respective isoenzymes was exactly 10 min. The results are presented as the mean ± SEM of three independent experiments, with two replicates of each experiment. […] Graphs were drawn using GraphPad Prism 8.0.

[2] = biological target: T2, human recombinant COX-2 (Homo sapiens, UniProt P35354); assay type: biochemical; conditions: incubation 10 min
T2 construct: purchased Cayman Chemicals
T2 sequence (P35354 18-604): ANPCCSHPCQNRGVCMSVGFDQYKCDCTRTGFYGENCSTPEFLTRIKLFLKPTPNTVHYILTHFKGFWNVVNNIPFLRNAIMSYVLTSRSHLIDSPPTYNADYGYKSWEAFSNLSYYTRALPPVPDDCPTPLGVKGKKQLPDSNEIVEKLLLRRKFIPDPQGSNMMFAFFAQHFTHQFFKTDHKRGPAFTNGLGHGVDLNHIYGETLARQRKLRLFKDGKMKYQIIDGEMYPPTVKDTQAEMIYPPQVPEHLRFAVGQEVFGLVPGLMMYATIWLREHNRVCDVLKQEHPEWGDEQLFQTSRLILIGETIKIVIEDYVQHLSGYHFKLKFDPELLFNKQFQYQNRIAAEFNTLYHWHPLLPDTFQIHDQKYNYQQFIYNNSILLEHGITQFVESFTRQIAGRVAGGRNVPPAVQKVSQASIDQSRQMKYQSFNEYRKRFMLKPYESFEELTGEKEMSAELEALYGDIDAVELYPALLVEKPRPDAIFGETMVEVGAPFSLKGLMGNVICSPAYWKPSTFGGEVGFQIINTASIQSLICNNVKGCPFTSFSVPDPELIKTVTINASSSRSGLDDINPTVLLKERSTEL
Procedure: as §1, §2

[3] = system: SKBr3 cells; experiment: Cellular uptake (platinum by HR-CS-AAS), SKBr3; assay type: cell-based, human; conditions: 8 h
Procedure: In order to reach the DNA, the complexes must first pass through the cell membrane and penetrate into the nuclei. Therefore, the cellular uptake kinetics of GW7604-Alk-PtCl3 complexes were studied using the example of GW7604-Pent-PtCl3. This complex and Cisplatin, respectively, were incubated at a concentration of 20 μM with MCF-7 or SKBr3 cells. After various time points [i.e., 0 (3 min), 0.5, 1, 2, 4, and 8 h], cell pellets were prepared, and the platinum content was quantified by high-resolution continuum source atomic absorption spectrometry (HR-CS-AAS).[52]
After thawing of the cell/nuclei pellets, they were resuspended in ultrapure water (Siemens LaboStar, Günzburg, Germany; 300 μL) and lyzed with a sonotrode (Bandelin Sonoplus, Berlin, Germany; parameters 20 s, 9 cycles, 80% power). Graphite furnace (GF) AAS was used to quantify the lysates concerning their content of platinum (λ = 265.9450 nm). For this purpose, a contrAA 700 High-Resolution-Continous Source AAS (Analytik Jena, Jena, Germany) was employed, while atomization took place by electrothermal heating of graphite tubes with an inserted platform (Analytik Jena, Jena, Germany). A time–temperature program reported in the literature[25] was followed with minor adjustments. The liquid samples kept in 0.5 mL polystyrene vials (Gesellschaft für Analysentechnik, Salzwedel, Germany) were injected directly into the pyrolytically coated tubes using an MPE 60 autosampler (Analytik Jena, Jena, Germany). Throughout the measurements, argon (Alphagaz 1, 99.999%, Air Liquide, Düsseldorf, Germany) served as the purge and protective gas. The spectrometer was monitored with the ASpect CS software, version 2.3.1.0 (Analytik Jena, Jena, Germany). For all runs, the mean integrated absorbance was determined after three injections of each standard or sample. Calibration was performed by an appropriate dilution of a solution of Cisplatin (Sigma-Aldrich, Taufkirchen, Germany) obtaining five standards (2–10 μg/L, R^2 ≥ 0.982). Each cell/nuclei lysate was quantified concerning its protein content following the method of Bradford[71] in order to express the uptake as the amount of compound (pmol) in the lysate relative to its protein mass (mg). Therefore, solutions of Albumin fraction V (Carl Roth, Karlsruhe, Germany) diluted with ultrapure water were adduced for the calibration (six standards, 50–300 μg/mL, R^2 ≥ 0.996). […] All standards and lysates were measured in duplicate. After incubating for 5 min at rt, the absorbance (λ = 595 nm) was read on a microplate reader (Tecan Safire 2, Männedorf, Switzerland). […]

T1 sequence (P23219 24-599): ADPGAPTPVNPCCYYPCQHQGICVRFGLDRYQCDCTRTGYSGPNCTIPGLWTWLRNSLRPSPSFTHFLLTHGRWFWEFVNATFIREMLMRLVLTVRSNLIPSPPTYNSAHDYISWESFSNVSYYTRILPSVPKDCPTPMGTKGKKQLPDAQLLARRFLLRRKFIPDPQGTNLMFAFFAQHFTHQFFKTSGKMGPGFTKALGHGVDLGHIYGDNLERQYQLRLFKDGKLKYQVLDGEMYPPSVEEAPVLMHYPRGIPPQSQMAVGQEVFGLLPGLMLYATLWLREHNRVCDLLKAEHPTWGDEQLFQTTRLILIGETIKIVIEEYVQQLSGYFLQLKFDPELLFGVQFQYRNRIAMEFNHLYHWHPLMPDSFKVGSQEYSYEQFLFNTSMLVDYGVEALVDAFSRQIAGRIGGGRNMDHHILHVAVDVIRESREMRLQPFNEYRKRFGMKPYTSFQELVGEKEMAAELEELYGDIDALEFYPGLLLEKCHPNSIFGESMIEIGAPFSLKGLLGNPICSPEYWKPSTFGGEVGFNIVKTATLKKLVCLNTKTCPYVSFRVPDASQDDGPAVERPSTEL

## CCC(=C(c1ccc(O)cc1)c1ccc(C=CC(=O)OCCC[CH]2[CH2][Pt-]2([Cl])([Cl])[Cl])cc1)c1ccccc1.[K+] (mixture of isomers) [GW7604-Pent-PtCl3, Potassium trichlorido[η^2-(pent-4-en-1-yl (E)-3-(4-((E/Z)-1-(4-hydroxyphenyl)-2-phenylbut-1-en-1-yl)phenyl)acrylate)]platinate(II)]
[1]; 0.1–20 μM
  IC50: 1700 nM
[1]
  concentration at which maximum activity is reached, COX-1: 10 µM
[2]; 0.1–20 μM
  IC50: 1820 nM
[2]
  concentration at which maximum activity is reached, COX-2: 10 µM
[3]; 20 μM
  platinum amount in SKBr3 relative to MCF-7 cells: about one-twelfth
[3]; SKBr3, 20 μM
  intracellular platinum amount: 67 pmol/mg
